Measurements reported in patent publication US20260308149A1, “NOVEL CARBOXAMIDE DERIVATIVES” (ANGELINI PHARMA S.P.A., priority 2023, published 2026).

Target: T1, human Kv7.2 (Homo sapiens, UniProt O43526)
T1 construct: expressed in transfected cells
Assay: activation (potentiation) of Kv7.2 current, SyncroPatch 384 electrophysiology in CHO cells stably expressing human Kv7.2
Assay type: cell-based
Conditions: human Kv7.2 in CHO cells; in presence of 5.6 μM zinc pyrithione; % activation relative to 30 μM ML-213
Description: The potency of Kv7 potentiators was determined using the SyncroPatch 384 (Nanion) high throughput electrophysiology platform.
CHO cells stably expressing either human Kv7.2, Kv7.4 or Kv7.5/7.3 under a constitutive CMV promoter were used for these studies. Cells were maintained in F12 Hams+1 mM L-glutamine (Hyclone) supplemented with 10% FBS (Sigma), 0.3×NEAA (Non-essential Gamino-acids) and 400 ug/ml G418 at 37° C. in 5% CO2. Cells were cultured in T-225 flasks (Nunc) for 2-3 days to reach 85-95% confluence prior to electrophysiological recording.
Earle's balanced salt solution (in mM): 135 NaCl, 5.4 KCl, 5 Glucose, 2 CaCl2), 1 MgCl2, 5 HEPES, pH 7.4. Seal enhancer solution (in mM): 90 NaCl, 3 KCl, 35 CaCl2), 10 MgCl2, 10 HEPES, pH 7.4. Extracellular recording solution (in mM): 71 NaCl, 70 NMDG, 13 KCl. 5 Glucose, 2 CaCl2, 1 MgCl2, 10 HEPES, pH 7.4. Intracellular recording solution (in mM): 130 KF, 20 KCl, 4 EGTA, 10 HEPES, 2 EDTA, 0.01 Escin, pH 7.2.
Cells were harvested for electrophysiological recording upon reaching appropriate confluence. Cells were first washed in DPBS (Hyclone, Cat #SH30028.03) and then 2 ml of Accutase (MP Biomedicals #1000449) was added at 28° C. until ~90% of cells were suspended. F12 HAM's media+1 mM L-glutamine (Hyclone, SH30026.02) was then added to the flask to dilute the accutase. Cells were then triturated until a single cell suspension was achieved, a cell count was performed, and cells were centrifuged for 2 min. at 1,000 rpm. Media was then aspirated, and cells were resuspended in Earle's balanced salt solution to a concentration of 0.75×10^6 cells/ml and allowed to recover for 25 min at 10° C.
At the beginning of each assay, 20 μl of cell suspension was dispensed into each well of a multi-hole 384-well SyncroPatch chip by the onboard pipettor. Cell sealing was initiated, and seal enhancer solution was added to facilitate seal formation. Upon completion of sealing, cells were washed 3 times with extracellular recording solution and the assay voltage protocol was started. Human Kv7.2, Kv7.4 or Kv7.5/7.3 channels were evaluated using a voltage protocol in which cells were voltage-clamped at a holding potential of −60 mV. Potassium currents were continuously activated with a series of three voltage steps to −30 mV for 3 seconds, 40 mV for 1 second and −90 mV for 4 seconds with 12 seconds between successive voltage sweeps. Potassium currents were measured from the −90 mV repolarizing step. Baseline current was assessed for 3.5 minutes prior to the addition of 5.6 μM zinc pyrithione (1 μM for Kv7.4). Kv7.2, Kv7.4 or Kv7.5/7.3 current in the presence of zinc pyrithione was acquired over five minutes to allow channels to reach steady state activity prior to addition of test agents. Channel activity was monitored for three minutes preceding the addition of 30 μM ML-213 (3 minutes) to achieve maximum activation. 150 mM TEA with 10 μM XE-991 was applied for 2 minutes to measure the leak current during maximum inhibition of Kv7.2, Kv7.4 or Kv7.5/7.3 channels.
Data were collected on the SyncroPatch platform using PatchControl software (Nanion) and processed and analyzed using DataControl Software (Nanion). Percent activation was calculated from potassium current as follows: The average current for the 5 sweeps in the presence of zinc pyrithione immediately preceding test agent addition was taken as the ‘control’ data. Likewise, the average potassium current in the presence of test agents 5 sweeps immediately preceding addition of 30 μM ML-213 was determined for ‘drug’ data. The average potassium current 5 sweeps immediately prior to addition of 150 mM TEA+10 μM XE-991 was determined for ‘max activation’ data while average currents from 5 sweeps immediately following addition of TEA was determined for ‘max inhibition’ data. Percent activation for each of the 384-wells of a sealchip was calculated as ((‘drug’−‘max inhibition’)/(‘max activation’−‘max inhibition’))*100 with Pipeline Pilot (Accelrys). […]

T1 sequence (O43526 whole entry): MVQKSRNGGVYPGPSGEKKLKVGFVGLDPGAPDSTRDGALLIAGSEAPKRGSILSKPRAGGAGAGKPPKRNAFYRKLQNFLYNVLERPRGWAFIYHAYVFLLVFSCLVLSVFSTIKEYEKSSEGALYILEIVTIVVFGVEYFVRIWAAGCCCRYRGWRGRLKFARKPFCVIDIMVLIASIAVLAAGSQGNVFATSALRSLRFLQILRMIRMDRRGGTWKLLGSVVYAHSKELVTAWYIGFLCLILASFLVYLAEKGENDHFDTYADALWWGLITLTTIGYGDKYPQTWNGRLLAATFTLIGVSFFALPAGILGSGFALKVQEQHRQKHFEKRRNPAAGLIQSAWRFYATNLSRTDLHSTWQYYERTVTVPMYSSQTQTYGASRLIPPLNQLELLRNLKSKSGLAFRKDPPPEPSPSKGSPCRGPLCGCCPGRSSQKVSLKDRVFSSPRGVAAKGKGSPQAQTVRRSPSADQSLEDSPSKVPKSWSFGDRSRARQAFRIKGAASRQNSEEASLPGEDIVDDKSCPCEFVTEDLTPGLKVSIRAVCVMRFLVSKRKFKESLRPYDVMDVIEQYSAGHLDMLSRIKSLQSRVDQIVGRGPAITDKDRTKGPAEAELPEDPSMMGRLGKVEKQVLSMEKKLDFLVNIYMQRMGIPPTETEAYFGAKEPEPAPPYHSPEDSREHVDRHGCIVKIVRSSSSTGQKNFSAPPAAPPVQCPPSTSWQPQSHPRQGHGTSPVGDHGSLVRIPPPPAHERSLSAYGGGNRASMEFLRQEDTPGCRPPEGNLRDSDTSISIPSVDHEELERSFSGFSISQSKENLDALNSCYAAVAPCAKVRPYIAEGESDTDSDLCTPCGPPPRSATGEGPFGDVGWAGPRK

SMILES | EC50 [nM]
COC(C)(CNC(=O)C1CC1c1ccccc1F)c1cccc(Cl)c1 (stereo not drawn) [Example 43, N-[2-(3-chlorophenyl)-2-methoxy-propyl]-2-(2-fluorophenyl)cyclopropanecarbox-amide] | 110
COC(C)(CNC(=O)C1CC1c1ccc(Cl)cc1)c1cccc(Cl)c1 (stereo not drawn) [Example 44, 2-(4-chlorophenyl)-N-[2-(3-chlorophenyl)-2-methoxy-propyl]cyclopropanecarboxamide] | 900
COC(C)(CNC(=O)/C=C/c1ccccc1F)c1cccc(Cl)c1 (stereo not drawn) [Example 47, (E)-N-[2-(3-chlorophenyl)-2-methoxy-propyl]-3-(2-fluorophenyl)prop-2-enamide] | 7510
COC(C)(CNC(=O)CCC1CCCC1)c1cccc(Cl)c1 (stereo not drawn) [Example 53, N-[2-(3-chlorophenyl)-2-methoxy-propyl]-3-cyclopentyl-propanamide] | 890
O=C(CC1CCCCC1)N[C@H]1C[C@H](c2cccc(Cl)c2)C1 [Example 56, N-[3-(1r,3r)-(3-chlorophenyl)cyclobutyl]-2-cyclohexyl-acetamide] | 3190
O=C(CC1CCCCC1)NCC1(c2cccc(Cl)c2)CCO1 (stereo not drawn) [Example 57, N-[[2-(3-chlorophenyl)oxetan-2-yl]methyl]-2-cyclohexyl-acetamide] | 430
O=C(CC1CCC(F)(F)CC1)NCC1(c2cccc(Cl)c2)CCO1 (stereo not drawn) [Example 65, N-[[2-(3-chlorophenyl)oxetan-2-yl]methyl]-2-(4,4-difluorocyclohexyl)acetamide] | 1920
O=C(NCC1(c2ccnc(OC(F)F)c2)CCO1)[C@H]1C[C@@H]1c1ccccc1 (stereo partly drawn) [Example 67, (1S,2S)-N-[[2-[2-(difluoromethoxy)-4-pyridyl]oxetan-2-yl]methyl]-2-phenyl-cyclopropanecarboxamide] | 410
O=C(NCC1(c2cccc(Cl)c2)COC1)[C@H]1C[C@@H]1c1ccccc1 [Example 68, (1S,2S)—N-[[3-(3-chlorophenyl)oxetan-3-yl]methyl]-2-phenyl-cyclopropanecarboxamide] | 200
CO[C@@](C)(CNC(=O)CCC(O)C(C)(C)C)c1cccc(Cl)c1 (stereo partly drawn) [Example 69, N-[(2R)-2-(3-chlorophenyl)-2-methoxy-propyl]-4-hydroxy-5,5-dimethyl-hexanamide] | 6290
N#CCO[C@H](CNC(=O)[C@H]1C[C@@H]1c1ccccc1)c1cccc(Cl)c1 [Example 70, (1S,2S)—N-[(2S)-2-(3-chlorophenyl)-2-(cyanomethoxy)ethyl]-2-phenyl-cyclopropanecarboxamide] | 650
O=C(NCC1CCCC1)NCC1(c2cccc(Cl)c2)COC1 [Example 72, 1-[[3-(3-chlorophenyl)oxetan-3-yl]methyl]-3-(cyclopentylmethyl)urea] | 870
N#CCOC(CNC(=O)CC1CCCC1)c1cccc(Cl)c1 (stereo not drawn) [Example 73, N-[2-(3-chlorophenyl)-2-(cyanomethoxy)ethyl]-2-cyclopentyl-acetamide] | 2000
O=C(NCC(CO)c1cccc(Cl)c1)[C@H]1C[C@@H]1c1ccccc1 (stereo partly drawn) [Example 74, (1S,2S)—N-[2-(3-chlorophenyl)-3-hydroxy-propyl]-2-phenyl-cyclopropanecarboxamide] | 3100
O=C(NCC1CCCC1)NCC1(c2cccc(Cl)c2)CCC(=O)O1 (stereo not drawn) [Example 75, 1-[[2-(3-chlorophenyl)-5-oxo-tetrahydrofuran-2-yl]methyl]-3-(cyclopentylmethyl)urea] | 290
O=C(NCC1(c2cccc(Cl)n2)CCO1)[C@H]1C[C@@H]1c1ccccc1 (stereo partly drawn) [Example 76, (1S,2S)—N-[[2-(6-chloro-2-pyridyl)oxetan-2-yl]methyl]-2-phenyl-cyclopropanecarboxamide] | 1740
O=C(NC/C(=C/CO)c1cccc(Cl)c1)[C@H]1C[C@@H]1c1ccccc1 [Example 77, (1S,2S)—N-[(E)-2-(3-chlorophenyl)-4-hydroxy-but-2-enyl]-2-phenyl-cyclopropanecarboxamide] | 340
O=C(NC/C(=C/CO)c1cccc(Cl)c1)NCC1CCCC1 [Example 78, 1-[(E)-2-(3-chlorophenyl)-4-hydroxy-but-2-enyl]-3-(cyclopentylmethyl)urea] | 6790
CO[C@@](C)(CNC(=O)C1CC12CCCCC2)c1cccc(Cl)c1 (stereo partly drawn) [Example 82, N-[(2R)-2-(3-chlorophenyl)-2-methoxy-propyl]spiro[2.5]octane-2-carboxamide] | 290
CO[C@@](C)(CNC(=O)C1CC12CCC(F)(F)CC2)c1cccc(Cl)c1 (stereo partly drawn) [Example 83, N-[(2R)-2-(3-chlorophenyl)-2-methoxy-propyl]-6,6-difluoro-spiro[2.5]octane-2-carboxamide] | 380

Results, then the molecule that gave them:

EC50 [nM] | SMILES
730 | O=C(NC[C@]1(c2cccc(Cl)c2)CCO1)[C@H]1C[C@@H]1c1ccccc1 [Example 39, (1S,2S)-N-[[(2R)-2-(3-chlorophenyl)oxetan-2-yl]methyl]-2-phenyl-cyclopropanecarboxamide]
110 | O=C(NC[C@@]1(c2cccc(Cl)c2)CCO1)[C@H]1C[C@@H]1c1ccccc1 [Example 40, (1S,2S)-N-[[(2S)-2-(3-chlorophenyl)oxetan-2-yl]methyl]-2-phenyl-cyclopropanecarboxamide]
40 | N#Cc1cccc([C@]2(CNC(=O)[C@H]3C[C@@H]3c3ccccc3)CCO2)c1 [Example 49, (1S,2S)-N-[[(2S)-2-(3-cyanophenyl)oxetan-2-yl]methyl]-2-phenyl-cyclopropanecarboxamide]
1650 | COc1cccc(NC(=O)NCC2(c3cccc(Cl)c3)CCO2)c1 (stereo not drawn) [Example 50, 1-[[2-(3-chlorophenyl)oxetan-2-yl]methyl]-3-(3-methoxyphenyl)urea]
790 | N#Cc1cccc([C@@]2(CNC(=O)[C@H]3C[C@@H]3c3ccccc3)CCO2)c1 [Example 55, (1S,2S)-N-[[(2R)-2-(3-cyanophenyl)oxetan-2-yl]methyl]-2-phenyl-cyclopropanecarboxamide]
810 | O=C(NCC1(c2cccc(Cl)c2)CCO1)Nc1cccc(Cl)c1 (stereo not drawn) [Example 58]
320 | O=C(NCC1CCCC1)NCC1(c2cccc(Cl)c2)CCO1 (stereo not drawn) [Example 59, 1-[[2-(3-chlorophenyl)oxetan-2-yl]methyl]-3-(cyclopentylmethyl)urea]
1050 | CC(C)(C)CNC(=O)NCC1(c2cccc(Cl)c2)CCO1 (stereo not drawn) [Example 60, 1-[[2-(3-chlorophenyl)oxetan-2-yl]methyl]-3-(2,2-dimethylpropyl)urea]
7600 | O=C(NCC1(c2cccc(Cl)c2)CCO1)C1CCCCC1 (stereo not drawn) [Example 61]
420 | O=C(NCc1cccc(Cl)c1)NCC1(c2cccc(Cl)c2)CCO1 (stereo not drawn) [Example 62, 1-[(3-chlorophenyl)methyl]-3-[[2-(3-chlorophenyl)oxetan-2-yl]methyl]urea]
5190 | O=C(CC12CC(C1)C2)NCC1(c2cccc(Cl)c2)CCO1 (stereo not drawn) [Example 63]
2750 | O=C(NCC1(c2cccc(Cl)c2)CCO1)C1CC2(CCC2)C1 (stereo not drawn) [Example 64, N-[[2-(3-chlorophenyl)oxetan-2-yl]methyl]spiro[3.3]heptane-2-carboxamide]
80 | O=C1CCC(CNC(=O)[C@H]2C[C@@H]2c2ccccc2)(c2cccc(Cl)c2)O1 (stereo partly drawn) [Example 66, (1S,2S)-N-[[2-(3-chlorophenyl)-5-oxo-tetrahydrofuran-2-yl]methyl]-2-phenyl-cyclopropanecarboxamide]
